Experimental data taken from patent publication US6191152A, “2-(1,2,4-triazole-1-yl)-1,3,4-thiadiazole derivatives having an effect on the C.N.S. and the heart” (EGIS Gyogyszergyar Rt., priority 1997, dated 2001).

Tests used:
[1] = system: isolated rat thoracic aorta; assay: Vascular relaxing effect in potassium chloride (20 mM KCl) contracted isolated rat thoracic aorta; design: species or system rat (male SPRD); settings: for IC50: Rattus norvegicus, 20 mM KCl contracted strips, 37° C., read-out: IC50 (vascular relaxation in isolated rat thoracic aorta)
Protocol: 1. Measurement of Vascular Relaxing Effect in Potassium Chloride Contracted Isolated rat Thoracic Aorta
Experiments were performed in thoracic aortas obtained from male SPRD rats weighing 250 to 300 g. Thoracic aortas excised from rats killed by decapitation and ensanguination were cleaned of fat and connective tissue, then were immediately placed in carbogenized TYRODE solution. The composition of the normal TYRODE solution was the following (in mM): NaCl 114.7, KCl 3.7, CaCl2 3.6, MgCl2 0.49, NaHCO3 19.9, NaH2 PO4 0.32, glucose 5.1.
Two mm wide and 20 to 25 mm long strips were cut from the aortas along a helical line at 45° angle. Aortic strips were mounted vertically between two cotton threads in 10 ml organ chambers, the lower threads were attached to the organ chambers and the upper threads were connected to isometric force transducers. The strips were incubated under 1 g resting tension at 37° C. for 120 minutes, then resting vascular tone was recorded. Then the strips were contracted with a TYRODE solution containing 20 mM KCl. The composition of the high potassium TYRODE solution was the following (in mM): NaCl 94.7, KCl 20, CaCl2 3.6, MgCl2 0.49, NaHCO3 19.9, NaH2 PO4 0.32, glucose 5.1.
When stable vascular tone developed, increasing doses of the test substance were added to the organ bath. The effects of each test substance were measured at least in 3 tissue preparations obtained from different animals. Decreases in vascular tension caused by the test substances were expressed as percentage changes and IC50 for each tissue preparation was determined by sigmoid (in few casses linear) curve fitting.
For comparison, cromakalim i.e. (±)-trans-3,4-dihydro-3-hydroxy-2,2-dimethyl-4-(2-oxo-1-pyrrolidinyl)-2H-1-benzopyrane-6-carbonitrile was used.

[2] = system: isolated guinea-pig papillary muscle; assay: Effective refractory period (ERP) prolonging effect in isolated guinea-pig right ventricular papillary muscle, in vitro; design: species or system guinea-pig (male); settings: for ERP change at 10^-4 M / ERP change at 10^-5 M: 30 minutes incubation, mean of at least four preparations
Text: 2. Measurement of Effective Refracter Period in Guinea-pig Right Ventricular Papillary Muscle, in Vitro.
Effective refracter period (ERP) is regarded to be the shortest time interval between two identical electrical stimuli when both can evoke a twitch in the papillary muscle. A second stimulus applied earlier than the ERP is not effective. Compounds prolonging ERP can have antiarrhythmic effect. This method is useful primarily for testing antiarrhythmic agents belonging to class III according to the Vaughan Williams classification /Bexton, R. S. and Camm. A., J. Pharmacol. Ther., 17, 315 (1982)/.
Experiments were performed in a Schuler-type organ bath system having 4 channels. Male guinea-pigs weighing 450 to 750 g were killed by a blow on the head and ensanguinated. The heart was rapidly excised and papillary muscles of appropriate size (lower than 1 mm in diameter) were dissected from the right ventricle. The preparations were vertically mounted in 20 ml organ chambers containing Krebs solution bubbled with carbogen (consisting of 95% of O2 and 5% of CO2) and maintained at 35° C. The upper end of the muscles was connected with cotton threads to force-displacement transducers coupled to a recorder for measuring isometric tension via DC-bridge amplifiers. The lower end of the papillary muscles was pinned to the organ chamber with a silver hook that was also used as a stimulating electrode. The other electrode was immersed into the organ bath and had no direct contact with the preparation. The composition of the Krebs solution was the following (in mm): NaCl 118, KCl 4.8, NaHCO3 27.2, glucose 11.1, MgSO4 1.2, KH2 PO4 1, CaCl2 2.6, pH=7.4.
The preparations were equilibrated for 120 minutes under a resting tension of 1 g. During equilibration they were electrically stimulated at a rate of 2 Hz with 1 msec rectangular pulses that were above the diastolic threshold voltage by 10%. ERP was determined using a standard extrastimulus technique. Extrastimuli (S2) were interjected between the normal stimuli (S1) in such a way that the S1 -S2 interval was initially below the refracter period of the tissue. The S1 -S2 interval was then widened by increments of 1 msec until the extrastimulus (S2) evoked twitch of the papillary muscle. The force of the twitch caused by S2 is larger than those caused by normal (S1) stimuli (postextrasystolic potentiation). The equipment measured the shortest S1 -S2 interval at which the extrastimulus evoked a twitch that was larger than the force of control twitches by 25%. This interval is equivalent with the ERP.
The experimental protocol was as follows:
Two control ERP measurements were performed 20 minutes apart, then appropriate amount of the test substance was added to produce 10^-4 M concentration in the bathing solution. After 30 minutes incubation with the test substance, two ERP measurements were performed 30 minutes apart.
When the test substance increased ERP at 10^-4 M by 40 msec or more, its effect on ERP was tested also at 10^-5 M.
The effect of the test substances was characterized by the difference between the first treated and the second control measurements. Individual data obtained from four different preparations, at least, were averaged. The reference substance used was sotalol i.e. N-[4-/1-hydroxy-2-(1-methylethylamino)ethyl/plenyl]methane sulfonamide.

Row | SMILES | IC50 [1] | vascular relaxation of isolated rat thoracic aorta (in words) [1] | ERP prolongation (in words) [2] | ERP change at 10^-4 M [2] | ERP change at 10^-5 M [2]
1 | CC1(C)Oc2ccc(C#N)cc2[C@@H](N2CCCC2=O)[C@@H]1O (racemic) [cromakalim, (±)-trans-3,4-dihydro-3-hydroxy-2,2-dimethyl-4-(2-oxo-1-pyrrolidinyl)-2H-1-benzopyrane-6-carbonitrile, reference compound] | 130 nM | – | – | – | –
2 | CN(C)CCCOc1ccccc1-c1nnc(-n2nc(N(C)C)nc2N)s1 [Example 29, 2-(5-Amino-3-dimethylamino-1H-1,2,4-triazole-1-yl)-5-/ 2-(3-dimethylaminopropoxy)phenyl/-1,3,4-thiadiazole] | 71 nM | relaxed isolated rat thoracic aorta more effectively than the K^+ channel opener and Ca^2+ channel blocker reference substances | – | – | –
3 | CC(C)Sc1nc(N)n(-c2nnc(-c3ccccc3OCCCN(C)C)s2)n1 [Example 30, 2-/5-Amino-3-(2-methylethylthio)-1H-1,2,4-triazole-1-yl/-5-/ 2-(3-dimethylaminopropoxy)phenyl/-1,3,4-thiadiazole] | 68 nM | relaxed isolated rat thoracic aorta more effectively than the K^+ channel opener and Ca^2+ channel blocker reference substances | – | – | –
4 | CN(C)CCCOc1ccccc1-c1nnc(-n2nc(N3CCCCC3)nc2N)s1 [Example 32, 2-(5-Amino-3-piperidino-1H-1,2,4-triazole-1-yl)-5-/ 2-(3-dimethylaminopropoxy)phenyl/-1,3,4-thiadiazole] | – | – | remarkable also at 10^-5 M | 155 msec | 158 msec
5 | CCN(CC)CCOc1ccc(-c2nnc(-n3nc(SC)nc3N)s2)cc1 [Example 36, 2-(5-Amino-3-methylthio-1H-1,2,4-triazole-1-yl)-5-/ 4-(2-diethylaminoethoxy)phenyl/-1,3,4-thiadiazole] | – | – | – | 53 msec | 15 msec
6 | CSc1nc(N)n(-c2nnc(-c3ccccc3OCCCN3CCCC3)s2)n1 [Example 43, 2-(5-Amino-3-methylthio-1H-1,2,4-triazole-1-yl)-5-/ 2-(3-pyrrolidinopropoxy)phenyl/-1,3,4-thiadiazole] | – | – | – | 66 msec | 34 msec
7 | CN(C)CCCOc1ccc(-c2nnc(-n3nc(N4CCN(C)CC4)nc3N)s2)cc1 [Example 47, 2-/5-Amino-3-(4-methylpiperazine-1-yl)-1H-1,2,4-triazole-1-yl/-5-/ 4-(3-dimethylaminopropoxy)phenyl/-1,3,4-thiadiazole] | – | – | – | 123 msec | 2 msec
8 | C=CCN(CC=C)c1nc(N)n(-c2nnc(-c3ccccc3OCCCN(C)C)s2)n1 [Example 49, 2-(5-Amino-3-diallylamino-1H-1,2,4-triazole-1-yl)-5-/ 2-(3-dimethylaminopropoxy)phenyl/-1,3,4-thiadiazole] | 170 nM | – | – | – | –
9 | COc1ccc(CCN(C)CCCOc2ccccc2-c2nnc(-n3nc(N4CCCCC4)nc3N)s2)cc1OC [Example 99, 2-(5-Amino-3-piperidino-1H-1,2,4-triazole-1-yl)-5-{2-[3-methyl-3-/ 2-(3,4-dimethoxyphenylethyl)amino/-propoxy]phenyl}-1,3,4-thiadiazole] | 130 nM | – | – | – | –
10 | COc1ccc(CCN(C)CCCOc2ccccc2-c2nnc(-n3nc(SC(C)C)nc3N)s2)cc1OC [Example 101, 2-/5-Amino-3-(1-methylethylthio)-1H-1,2,4-triazole-1-yl/-5-{2-[3-methyl-3-/2-(3,4-dimethoxyphenylethyl)amino/propoxy]-phenyl}-1,3,4-thiadiazole] | 75 nM | relaxed isolated rat thoracic aorta more effectively than the K^+ channel opener and Ca^2+ channel blocker reference substances | – | – | –
11 | COc1ccc(CCN(C)CCCOc2cccc(-c3nnc(-n4nc(SC)nc4N)s3)c2)cc1OC [Example 105, 2-(5-Amino-3-methylthio-1H-1,2,4-triazole-1-yl)-5-{3-[3-methyl-3-/ 2-(3,4-dimethoxyphenylethyl)amino/propoxy]phenyl}-1,3,4-thiadiazole] | > 1000 nM | – | – | 62 msec | 14 msec
12 | COc1ccc(CCN(C)CCCOc2ccc(-c3nnc(-n4nc(SC)nc4N)s3)cc2)cc1OC [Example 108, 2-(5-Amino-3-methylthio-1H-1,2,4-triazole-1-yl)-5-{4-[3-methyl-3-/ 2-(3,4-dimethoxyphenylethyl)amino/propoxy]phenyl}-1,3,4-thiadiazole] | > 10000 nM | – | – | 66 msec | 29 msec
13 | CC(C)NCC(O)c1ccc(NS(C)(=O)=O)cc1 (centres unmarked) [sotalol, N-[4-/1-hydroxy-2-(1-methylethylamino)ethyl/plenyl]methane sulfonamide, reference compound] | – | – | – | 47 msec | 26 msec
